Reference: patent US20080293700A1, “Compositions and Methods Relating to Novel Compounds and Targets Thereof” (priority 2004, published 2008)
Read-outs that look alike come from different tables or passages of the source.

What was measured:
[1] = target: T1, ATP hydrolytic activity of sub-mitochondrial particles (SMPs), mitochondrial F1Fo-ATPase (Bos taurus, UniProt P13621); experiment: NADH-coupled kinetics assay of ATP hydrolysis by sub-mitochondrial particles; assay type: biochemical, bovine; details: for Ki: non-competitive (mixed) model; for Km / Vmax: three-dimensional fit
T1 construct: from tissue; host or cells: sub-mitochondrial particles (SMPs)
Experimental: The mechanism of inhibition for ATP hydrolysis induced by Bz-423 and derivatives of Bz-423 was assayed using an NADH-coupled assay. The ATP hydrolytic activity of the sub-mitochondrial particles (hereinafter SMPs) was measured by coupling the production of ADP to the oxidation of NADH via the pyruvate kinase and lactate dehydrogenase reaction. Briefly, ATP hydrolysis SMPs (0.8 mg; 7.14 μg/well) were added to hydrolysis buffer (100 mM Tris-HCl, pH 8.0 at 25° C., 4 mM MgCl2, […], 0.2 mM EDTA) and vortexed. 125 μL of this suspension was added to each well of a 96-well plate containing 50× drug or DMSO vehicle control (1% DMSO, final). The 96-well plate was then placed at 30° C. in a Molecular Devices Versamax tunable microplate reader and allowed to incubate for 5 min. During this 5 min, a substrate-coupling mixture was prepared (containing X mM ATP, 0.2 mM NADH, 1 mM phosphoenolpyruvate (PEP), 2 U/mL pyruvate kinase (PK), and 2 U/mL lactate dehydrogenase (LDH) in hydrolysis buffer). The rate of hydrolysis was assayed over a range of ATP concentrations (0.1-4.0 mM) at each [Bz]. 125 μL of the substrate-coupling mixture was added to each well, and the rate of NADH oxidation was monitored for 10 min at 340 nm, 30° C. The measured decrease in absorbance over time (in OD/min) was converted to μmol ATP hydrolyzed/min/mg SMP (ε=6220). The velocity data was plotted versus [ATP] for each concentration of [Bz] (e.g., 1-8 μM) (see, e.g., FIG. 1) and then fit to the Michaelis-Menten equation:
m1*m0/(1+m0/m2) • where m1=Vmax/Km and m2=Km The apparent kinetic parameters for each [Bz] were obtained from these curve fits to generate secondary plots of [Bz] versus Vmax, [Bz] versus Km, and [Bz] versus Vmax/Km (see, e.g., FIG. 2). The o-tert-Butyl derivative, shown below,
To obtain Ki values and confirm that an uncompetitive model of inhibition was the best fit for the data, three-dimensional fits of the velocity, [ATP], and [Bz] were performed to solve for Vmax, Km, Ki, and Ki* [where Ki indicates Bz binding to the ATPase with the third catalytic site empty (mixed-type inhibition only), and Ki* indicates binding when all three sites have substrate bound (uncompetitive and mixed-type inhibition)]. The following equations were used:
Vo=Vmax[S]/((1+[I]/Ki)Km+[S])
Vo=Vmax[S]/((1+[I]/Ki*) [S]+Km)
Vo=Vmax[S]/((1+[I]/Ki)Km+(1+[I]Ki*)[S])

F1Fo-ATPase = details: cited from earlier work
[2] = binding with third catalytic site empty
[3] = non-competitive (mixed) inhibition model

SMILES | mechanism of inhibition of ATP hydrolysis [1] | Ki ([1]; binding when all three sites have substrate bound, read-out: Ki*) [µM] | Ki [1, 2] | Km ([1]; competitive inhibition model) [µM] | Vmax ([1]; competitive inhibition model) | Vmax [1, 3] | Km ([1]; uncompetitive inhibition model) [µM] | Vmax ([1]; uncompetitive inhibition model) | mode of inhibition of the F1Fo-ATPase (F1Fo-ATPase) | effect on apparent Km ([1]; secondary plot [Bz] versus Km, [Bz] 1-8 μM) | effect on apparent Vmax ([1]; secondary plot [Bz] versus Vmax, [Bz] 1-8 μM) | IC50 (F1Fo-ATPase) [µM]
CN1C(=O)C(Cc2ccc3ccccc3c2)N=C(c2ccc(O)cc2)c2cc(Cl)ccc21 (centres unmarked) [Bz-423] | uncompetitive | 18.9 ± 6.3 | no fit | 400 ± 100 | 2.62 ± 0.9 | 3.37 ± 1.4 | 680 ± 100 | 3.34 ± 1.3 |  |  |  | 
COC[C@@H](C[C@H]1O[C@@](O)([C@H](O)[C@@H]2C[C@H](OC)[C@@H](O)CC/C=C(C)/C=C/[C@@H](O[C@@H]3O[C@@H](C)[C@H](OC)[C@@H](O)[C@@H]3O)[C@H](C)/C=C(C)/C=C(C)/C=C(\C)C(=O)O2)[C@H](C)[C@@H](O)[C@H]1C)OC1C[C@](C)(O)[C@@H](O[C@H]2C[C@@H](OC)[C@H](O)[C@@H](C)O2)[C@H](C)O1 (some centres unmarked) [apoptolidin] |  |  |  |  |  |  |  |  | non-competitive |  |  | 
CN1C(=O)C(Cc2ccc(OC(C)(C)C)cc2)N=C(c2ccc(O)cc2)c2cc(Cl)ccc21 (centres unmarked) [o-tert-Butyl] | uncompetitive |  | no fit | 250 ± 20 | 1.25 ± .01 | 1.53 ± .03 | 390 ± 300 | 1.53 ± 0.03 |  | decreased | decreased | 
CC[C@H]1/C=C/C=C/C[C@@H](C)[C@H](O)[C@@](C)(O)C(=O)[C@@H](C)[C@H](O)[C@@H](C)C(=O)[C@@H](C)[C@H](O)[C@@H](C)/C=C/C(=O)O[C@@H]2[C@H](C)[C@H](CC1)O[C@]1(CC[C@H](C)[C@H](C[C@@H](C)O)O1)[C@H]2C [oligomycin] |  |  |  |  |  |  |  |  | non-competitive |  |  | 0.01
